Literature values in patent EP4578441A1, “TREATMENT OF LOCALIZED PAIN” (PlantTec Medical GmbH, priority 2023, dated 2025).
Like-named read-outs stand apart in the source and are kept apart here.

Key:
[1] = free base
volunteers = conditions: i.v. infusions

Row | Compound | water solubility [1] | safety of local administration (dose of 400 mg) | safety of local administration (dose of 800 mg) | CNS toxicity threshold, free plasma ropivacaine concentration (volunteers; free plasma concentration) [µg/mL] | CNS toxicity threshold, free plasma ropivacaine concentration, maximum (volunteers; maximum) [µg/mL] | CNS toxicity threshold, free plasma ropivacaine concentration, minimum (volunteers; minimum) [µg/mL]
1 | CCCN1CCCC[C@H]1C(=O)Nc1c(C)cccc1C [ropivacaine free base, (S)-1-Propyl-2',6'-dimethyl-2-piperidylcarboxyanilide] | weak | – | – | – | – | –
2 | CCCN1CCCC[C@H]1C(=O)Nc1c(C)cccc1C [ropivacaine, (S)-1-Propyl-2',6'-dimethyl-2-piperidylcarboxyanilide] | – | safe | safe | 0.60 | 0.85 | 0.34
